According to PubChem BioAssay (NCI):
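Compound exposure: 48 hours, 5 concentrations, 96-well plates. GI50: concentration for 50% inhibition of growth. Definition used: TGI = concentration required for complete inhibition of growth.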 Where a SMILES comes first, the peptide text is derived from it. The star is where a group is joined. Cbz = O=C(OCc1ccccc1)*; OBn = c1ccc(CO*)cc1

How the values were obtained:
Test in all cases: growth of human tumour cells (NCI), 48 h
SK-OV-3 ovarian = tested on: SK-OV-3 ovarian
HCC-2998 colon = tested on: HCC-2998 colon
OVCAR-3 ovarian = tested on: OVCAR-3 ovarian
UO-31 renal = tested on: UO-31 renal
UACC-257 melanoma = tested on: UACC-257 melanoma
SF-268 CNS = tested on: SF-268 CNS
IGROV1 ovarian = tested on: IGROV1 ovarian
TK-10 renal = tested on: TK-10 renal
SK-MEL-2 melanoma = tested on: SK-MEL-2 melanoma

SMILES	TGI (SK-OV-3 ovarian) [µM]	TGI (HCC-2998 colon) [µM]	TGI (OVCAR-3 ovarian) [µM]	TGI (UO-31 renal) [µM]	TGI (UACC-257 melanoma) [µM]	TGI (SF-268 CNS) [µM]	TGI (IGROV1 ovarian) [µM]	TGI (TK-10 renal) [µM]	TGI (SK-MEL-2 melanoma) [µM]	GI50 (SK-OV-3 ovarian) [µM]	GI50 (HCC-2998 colon) [µM]	GI50 (OVCAR-3 ovarian) [µM]	GI50 (SK-MEL-2 melanoma) [µM]	GI50 (UACC-257 melanoma) [µM]	GI50 (SF-268 CNS) [µM]	GI50 (TK-10 renal) [µM]	GI50 (UO-31 renal) [µM]	GI50 (IGROV1 ovarian) [µM]
c1ccc2c(c1)CCc1cc3cc4c(nc3nc1-2)-c1ccccc1CC4	> 100	> 100	> 100	> 100	> 100	> 100	> 100	> 100	–	–	–	–	–	–	–	–	–	–
CC(=O)OC(OC(C)=O)n1cc(C=O)c2ccccc21	> 100	> 100	> 100	> 100	> 100	–	–	> 100	> 100	–	–	–	–	–	–	–	–	–
O=C(c1ccccc1)c1ccc2nc(-c3c(Cl)c(Cl)c(Cl)c(Cl)c3C(=O)N/N=C/c3ccccc3)[nH]c2c1	> 100	–	54.3	> 100	85	> 100	> 100	> 100	67.5	–	–	–	–	–	–	–	–	–
CSc1c(C#N)c(=O)[nH]c2n[nH]c(C)c12	> 100	> 100	> 100	> 100	> 100	> 100	–	> 100	> 100	–	–	–	–	–	–	–	–	–
CSC1=C(C#N)C(=O)N(c2ccc(C)cc2)C(=S)C1C#N (stereo not drawn)	> 100	> 100	–	–	> 100	> 100	> 100	> 100	> 100	–	–	–	–	–	–	–	–	–
COC(=O)/C=C/c1cc(O)c2c(c1)[C@H](C(=O)OC)[C@@H](c1ccc(O)c(O)c1)O2	> 79.8	54.6	–	> 63.5	> 100	> 87	> 38.8	> 100	> 70	–	–	–	–	–	–	–	–	–
COC(=O)C(Cc1ccc(O)cc1)NC(=O)C(CC(=O)OCc1ccccc1)NC(=O)OCc1ccccc1 (stereo not drawn) (Cbz-Asp(OBn)-Tyr-OMe; configuration not given here)	–	31.5	–	49	45.5	–	31.1	33.5	34.8	–	–	–	–	–	–	–	–	–
COC(=O)c1cc(C#N)[nH]c1-c1ccc(C)s1	> 100	> 100	> 100	> 100	> 100	> 100	–	–	–	–	–	–	–	–	–	–	–	–
Nc1ccccc1N/C=C\C(=O)C(Cl)(Cl)Cl	70.8	31.7	–	62.6	64.2	> 100	40.7	71.9	53.7	–	–	–	–	–	–	–	–	–
COc1ccc2c(c1)N=C1CSC(c3ccccc3Cl)N1C2 (stereo not drawn)	47.5	18.1	–	1.8	32.7	76.2	–	41.8	30.3	–	–	–	–	–	–	–	–	–
Cc1nc2ccc(S(=O)(=O)O)cc2c(=O)n1-c1ccc(C(=O)NN2C(=O)C(Cl)C2c2ccccc2O)cc1 (stereo not drawn)	> 100	–	> 100	> 100	> 100	> 100	> 100	> 100	> 100	–	–	–	–	–	–	–	–	–
C=CCNC(=O)NC1=CSC2=NC(=O)C3(NN12)c1ccccc1-c1ccccc13	> 10	> 10	–	> 10	> 10	> 10	> 10	> 10	–	–	–	–	–	–	–	–	–	–
OC1(c2cc3ccccc3s2)CCCCC1	> 100	> 100	> 100	> 100	> 100	93.6	> 100	> 100	–	–	–	–	–	–	–	–	–	–
COc1cccc(/C=N/[N-]C(N)=O)c1[O-].[Ni+2].[OH3+].c1cnc2c(c1)ccc1cccnc12	> 100	–	> 100	> 100	> 100	> 100	> 100	> 100	> 100	–	–	–	–	–	–	–	–	–
Cc1ccc(C(C2C(=O)N(C)C(=O)N(C)C2=O)C(F)(F)C(=O)N(C)C)cc1 (stereo not drawn)	> 100	> 100	> 100	> 100	> 100	> 100	–	> 100	> 100	–	–	–	–	–	–	–	–	–
C#CC(F)(F)[C@]1(O)CC[C@H]2[C@@H]3CCC4=CC(=O)CCC4=C3[C@@H](c3ccc(C(C)=O)cc3)C[C@@]21C	> 100	> 100	42.8	–	88.5	> 100	–	71.4	32.8	20.7	31.2	0.289	13.2	21.1	0.423	24.9	–	–
CNC(=O)c1cc(NC(=O)N(CCC#N)CCN(C(=O)N[C@@H](Cc2ccccc2)C(=O)N[C@@H](CC(C)C)C(=O)NC)c2ccccc2)ccc1OC	> 100	–	> 100	> 100	51	> 65.7	> 73.2	> 100	> 74.5	–	–	–	–	–	–	–	–	–
COc1cccc(Cc2c3cc(OC)ccc3cc[n+]2C)c1	–	> 100	> 100	> 100	51.6	> 100	–	> 100	> 100	–	–	–	–	–	–	–	–	–
O=C(NC1CCN(Cc2ccccc2)CC1)c1cc2nc(-c3ccc(Cl)s3)cc(C(F)(F)F)n2n1	> 100	–	> 100	> 100	–	> 100	> 100	> 100	–	61.6	–	42.4	–	–	> 100	12.5	> 100	> 100
